# “Also recorded” adds a separate entry of the source.
# Key:
# [1] = tested on: wild-type mice; experiment: Three-chamber social preference test; type: in vivo; conditions: 0.0625 mg/kg, listed as CLZ
# Method: The test was performed as described previously^34 with minor modifications. […] Each partition has a square opening (5×5 cm) in the bottom center. A cylindrical wire cage (10.5 cm diameter; GALAXY PENCIL CUP™ […] D[…]™) was used as an inanimate object or the cage housing a stranger mouse. A cylindrical bottle filled with water was placed on the top of the wire cup to prevent the test mouse from climbing to the top of the cup. The three-chamber unit and wire cups were cleaned with 70% ethanol and wiped with paper towels between each trail. […] The mouse was allowed to freely explore each chamber. […] The wire cage on the other side remained empty (E). […] Thus, the test mouse would now have the choice between a mouse that was already familiar (M1) and a new stranger mouse (M2). […] The movement of the mouse was recorded by a USB webcam (LIFECAM™ HD-6000, MICROSOFT™) and PC-based video capture software (WINAVI™ Video Capture, ZJ MEDIA DIGITAL TECHNOLOGY™). The recorded video file was further analyzed by off-line video tracking software (ETHOVISION™ XT 7.0).
# Oral administration is specifically contemplated for the methods described herein, and is well known for both benzodiazepines and non-BDZ GABA-A enhancers as described herein.
# [2] = cited from earlier work
# [3] = cited from earlier work; remark: listed apart in the source
# [4] = tested on: BTBR mice; experiment: Elevated plus maze test; type: in vivo; conditions: 0.05 mg/kg
# Method: (§1) The test was performed as previously described (Han et al., 2012). The maze used in this study has two closed arms (5.1×30 cm) surrounded by 20-cm high non-transparent walls and two open arms (5.1×30 cm). During the 10 min of trial, times spent in closed, center, and open arms, and total distance traveled during the trial were measured by the video-tracking software (EthoVision XT 8.5, Noldus Technology).
# [5] = tested on: C57BL/6J mice; experiment: Elevated plus maze test; type: in vivo; conditions: low doses of clonazepam
# Method: as §1
structure (smiles),measurement,setting,value
O=C1CN=C(c2ccccc2Cl)c2cc([N+](=O)[O-])ccc2N1 [Clonazepam],"social interaction, 3-chamber social preference test",[1],no effect; also recorded: absent; also recorded: not changed
same,"Dose in humans for anti-anxiety, anti-convulsive, or sedative effects: equivalent dose to 10 mg diazepam","[2]; Table 1, values marked *",0.5 mg
same,dose of equivalent efficacy to 10 mg of diazepam,[2],0.5 mg
same,half-life,[3]; in vivo,30 to 40 h
same,half-life in vivo,[3]; mouse washout experiment,12 h
same,time in open arms (indicator of abnormally low anxiety),[4],changed toward the values for C57BL/6J mice
same,sedation (total distance moved during elevated plus maze),[4]; BTBR and C57BL/6J mice (FIG. 43I),did not cause sedation; also recorded: without sedation
same,anxiety-like behavior: avoidance of the open arms,[5],little effect
